Reference: PMC9569988 (International Journal of Molecular Sciences, 2022)
Several values for one entry are separate records, joined by “and”; a condition that tells them apart may be missing. Equal entries are not always repeated. Entries after “also recorded” stand apart in the source; their conditions may differ.

Tests used:
SADS-CoV [1] = experiment: microbe, parasite or virus in culture; assay type: cell-based, Swine acute diarrhea syndrome coronavirus; conditions: for inhibition at 10 µM: Swine acute diarrhea syndrome coronavirus, Huh-7, read-out: inhibition rate of SADS-CoV viral replication (qPCR)
SADS-CoV [2] = experiment: microbe, parasite or virus in culture; assay type: cell-based; conditions: Swine acute diarrhea syndrome coronavirus, Huh-7
SADS-CoV [3] = assay type: cell-based, Swine acute diarrhea syndrome coronavirus
SADS-CoV [4] = assay type: cell-based, Swine acute diarrhea syndrome coronavirus; remark: listed apart in the source
SADS-CoV [5] = assay type: cell-based, Swine acute diarrhea syndrome coronavirus; remark: listed apart in the source
SADS-CoV [6] = assay type: cell-based, Swine acute diarrhea syndrome coronavirus; remark: listed apart in the source
SADS-CoV [7] = assay type: cell-based, Swine acute diarrhea syndrome coronavirus; remark: listed apart in the source
[8] = tested on: SADS-CoV nucleocapsid protein; assay type: cell-based, Swine acute diarrhea syndrome coronavirus
in vitro = conditions: human
SADS-CoV [9] = assay type: cell-based, Swine acute diarrhea syndrome coronavirus; remark: listed apart in the source

Row | SMILES | CPE inhibition in SADS-CoV infection (SADS-CoV [1]) | inhibition at 10 µM (SADS-CoV [1]) [%] | EC50 (SADS-CoV [2]) [µM] | decrease of viral RNA expression in the cells (SADS-CoV [3]) | viral titers in the supernatant (infectious progeny) (SADS-CoV [4]) | effect on virus binding compared with positive control (SADS-CoV [5]) | effect on virus internalization (SADS-CoV [6]) | decrease of viral RNA in the supernatant (SADS-CoV [7]) [log] | expression of viral proteins in cells (immunoblot) [8] | CC50 (Huh7 cells) | CC50 (in vitro) [µM] | SADS-CoV titer (TCID50) at 24 hpi (SADS-CoV [9]) | virus RNA level in the supernatant when added after virus entry (SADS-CoV [7]) | decrease of SADS-CoV RNA in binding assay (SADS-CoV [5]) | reduction of viral RNA compared with the positive control (SADS-CoV [7]) | viral RNA decrease (SADS-CoV [7]) [log]
1 | COc1c(C)c2c(c(O)c1C/C=C(\C)CCC(=O)O)C(=O)OC2 [Mycophenolic acid] | significantly exhibited CPE inhibitions | > 60 | 0.56 | 96.7% and 93.9% | exhibited inhibitory effects only when they were added after viral entry | no statistically significant difference | no statistically significant difference | 0.9 | inhibition effect | low cytotoxicity | > 100 |  |  |  |  | 
2 | Nc1ccn([C@@H]2O[C@H](CO)[C@@H](O)C2(F)F)c(=O)n1 [Gemcitabine] | significantly exhibited CPE inhibitions | > 60 | 0.117 | less remarkable differences | exhibited inhibitory effects only when they were added after viral entry | no statistically significant difference | no statistically significant difference | 1.8 | inhibition effect | low cytotoxicity | 88.5 |  |  |  |  | 
3 | COc1ccc2cc1Oc1ccc(cc1)C[C@H]1c3c(cc4c(c3Oc3cc5c(cc3OC)CCN(C)[C@@H]5C2)OCO4)CCN1C [Cepharanthine] | significantly exhibited CPE inhibitions | > 60 | 0.789 | 72.9% and 57.5% | at the ”Entry” stage could reduce infectious progeny |  | less function |  |  |  | 16.2 | viral titer was decreased; also recorded: also effective; also recorded: showed a reduction in SADS-CoV viral progeny | could not inhibit SADS-CoV replication |  |  | 
4 | COc1c(C)c2c(c(O)c1C/C=C(\C)CCC(=O)OCCN1CCOCC1)C(=O)OC2 [Mycophenolate mofetil] | significantly exhibited CPE inhibitions | > 60 | 1.7 | 91.5% and 65.8% | exhibited inhibitory effects only when they were added after viral entry | no statistically significant difference | no statistically significant difference | 0.5 | inhibition effect | low cytotoxicity | > 100 |  |  |  |  | 
5 | CN(C)c1ccc2nc3ccc(=[N+](C)C)cc-3sc2c1 [Methylene blue] | significantly exhibited CPE inhibitions | > 60 | 0.217 |  | strong inhibitory activity against viral replication during both periods |  | no distinct effect |  | inhibition of viral protein expression | low cytotoxicity | > 25 | inhibit SADS-CoV infection; also recorded: inhibition effect got better |  | 78.5% and 88.5% | 2- to 3 log | 3
